Results as given in patent US10344039B2, “Macrocyclic spirocarbamate derivatives as factor XIa inhibitors, pharmaceutically acceptable compositions and their use” (MERCK SHARP & DOHME CORP., priority 2015, dated 2019).
pKi: −log10 of the molar value.

Legend:
[1] = molecular target: T1, purified human Factor XIa (Homo sapiens, UniProt P03951); assay: Factor XIa Assay; assay type: biochemical; conditions: purified human Factor XIa 40 pM; substrate Z-Gly-Pro-Arg-AFC 100 μM; 50 mM HEPES pH 7.4; read-out: Hu FXIa Ki
T1 construct: purified human Factor XIa; purchased Sekisui Diagnostics
Experimental: The effectiveness of a compound of the present invention as an inhibitor of Coagulation Factor XIa can be determined using a relevant purified serine protease, and an appropriate synthetic substrate. The rate of hydrolysis of the chromogenic or fluorogenic substrate by the relevant serine protease was measured both in the absence and presence of compounds of the present invention. Assays were conducted at room temperature or at 37° C. […] A decrease in the rate of fluorescence change in the presence of inhibitor is indicative of enzyme inhibition. Such methods are known to one skilled in the art. The results of this assay are expressed as the inhibitory constant, Ki.
Factor XIa determinations were made in 50 mM HEPES buffer at pH 7.4 containing 150 mM NaCl, 5 mM CaCl2, and 0.1% PEG 8000 (polyethylene glycol; JT Baker or Fisher Scientific). Determinations were made using purified human Factor XIa at a final concentration of 40 pM (Sekisui Diagnostics) and he synthetic substrate, Z-Gly-Pro-Arg-AFC, TFA salt (Sigma #C0980) at a concentration of 100 μM.
Activity assays were performed by diluting a stock solution of substrate at least tenfold to a final concentration ≤0.1 Km into a solution containing enzyme or enzyme equilibrated with inhibitor. Times required to achieve equilibration between enzyme and inhibitor were determined in control experiments. Initial velocities of product formation in the absence (Vo) or presence of inhibitor (Vi) were measured. Assuming competitive inhibition, and that unity is negligible compared Km/[S], [I]/e, and [I]/e (where [S], [I], and e respectively represent the total concentrations, of substrate, inhibitor and enzyme), the equilibrium constant (Ki) for dissociation of the inhibitor from the enzyme can be obtained from the dependence of Vo/Vi on [I] shown in the following equation. Vo/Vi=1+[I]/Ki
The activities shown by this assay indicate that the compounds of the invention may be therapeutically useful for treating or preventing various cardiovascular and/or cerebrovascular thromboembolic conditions in patients suffering from unstable angina, acute coronary syndrome, refractory angina, myocardial infarction, transient ischemic attacks, atrial fibrillation, stroke such as thrombotic stroke or embolic stroke, venous thrombosis, coronary and cerebral arterial thrombosis, cerebral and pulmonary embolism, atherosclerosis, deep vein thrombosis, disseminated intravascular coagulation, and reocclusion or restenosis of recanalized vessels. The Ki values measured for each of the example compounds of the invention using this assay are reported in the tables above (as “Hu FXIa Ki (nM)”).

[2] = molecular target: T2, purified Human plasma kallikrein (Homo sapiens, UniProt P03952); assay: Kallikrein Assay; assay type: biochemical; conditions: purified Human plasma kallikrein 0.5 nM; substrate Acetyl-K-P-R-AFC; 50 mM HEPES pH 7.4; Ki from IC50 by Cheng Prusoff equation; read-out: Hu P. Kallikrein
T2 construct: yields a heavy chain (371 amino acids) and a light chain (248 amino acids); purchased Enzyme Research Laboratories
Experimental: The effectiveness of a compound of the present invention as an inhibitor of Kallikrein can be determined using a relevant purified serine protease, and an appropriate synthetic substrate. The rate of hydrolysis of the chromogenic or fluorogenic substrate by the relevant serine protease was measured both in the absence and presence of compounds of the present invention. Assays were conducted at room temperature or at 37° C. […] A decrease in the rate of fluorescence change in the presence of inhibitor is indicative of enzyme inhibition. Such methods are known to one skilled in the art. The results of this assay are expressed as the inhibitory constant, Ki. Kallikrein determinations were made in 50 mM HEPES buffer at pH 7.4 containing 150 mM NaCl, 5 mM CaCl2, and 0.1% PEG 8000 (polyethylene glycol; Fisher Scientific). Determinations were made using purified Human plasma kallikrein at a final concentration of 0.5 nM (Enzyme Research Laboratories) and the synthetic substrate, Acetyl-K—P-R-AFC (Sigma # C6608) at a concentration of […]. Activity assays were performed by diluting a stock solution of substrate at least tenfold to a final concentration ≤0.2 Km into a solution containing enzyme or enzyme equilibrated with inhibitor. Times required to achieve equilibration between enzyme and inhibitor were determined in control experiments. The reactions were performed under linear progress curve conditions and fluorescence increase measured at 405 Ex/510 Em nm. Values were converted to percent inhibition of the control reaction (after subtracting 100% Inhibition value). IC50 was determined by inflection point from a four parameter logistic curve fit. Ki was calculated using the Cheng Prusoff equation, Ki=IC50/(1+([S]/Km)). The activities shown by this assay indicate that the compounds of the invention may be therapeutically useful for treating or preventing various cardiovascular and/or cerebrovascular thromboembolic conditions in patients suffering from unstable angina, acute coronary syndrome, refractory angina, myocardial infarction, transient ischemic attacks, atrial fibrillation, stroke such as thrombotic stroke or embolic stroke, venous thrombosis, coronary and cerebral arterial thrombosis, cerebral and pulmonary embolism, atherosclerosis, deep vein thrombosis, disseminated intravascular coagulation, and reocclusion or restenosis of recanalized vessels.

T1 sequence (P03951 388-625 limits assumed): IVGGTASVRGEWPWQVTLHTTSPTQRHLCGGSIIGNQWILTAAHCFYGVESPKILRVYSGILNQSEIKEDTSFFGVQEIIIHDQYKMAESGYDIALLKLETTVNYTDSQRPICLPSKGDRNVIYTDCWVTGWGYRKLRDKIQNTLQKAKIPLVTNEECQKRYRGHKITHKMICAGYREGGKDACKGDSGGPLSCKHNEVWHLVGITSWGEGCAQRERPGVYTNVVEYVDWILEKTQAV
T1 sequence (P03951 19-387 partner limits assumed): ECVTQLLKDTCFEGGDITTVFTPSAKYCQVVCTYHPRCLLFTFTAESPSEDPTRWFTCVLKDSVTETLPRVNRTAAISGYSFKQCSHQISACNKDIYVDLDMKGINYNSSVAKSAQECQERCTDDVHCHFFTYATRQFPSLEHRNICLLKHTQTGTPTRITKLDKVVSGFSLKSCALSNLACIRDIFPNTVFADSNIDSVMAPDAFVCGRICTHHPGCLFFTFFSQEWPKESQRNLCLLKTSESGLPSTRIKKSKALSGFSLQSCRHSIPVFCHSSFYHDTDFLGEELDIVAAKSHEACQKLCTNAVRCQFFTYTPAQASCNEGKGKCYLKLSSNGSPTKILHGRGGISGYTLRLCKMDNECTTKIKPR
T2 sequence (P03952 391-638 limits assumed): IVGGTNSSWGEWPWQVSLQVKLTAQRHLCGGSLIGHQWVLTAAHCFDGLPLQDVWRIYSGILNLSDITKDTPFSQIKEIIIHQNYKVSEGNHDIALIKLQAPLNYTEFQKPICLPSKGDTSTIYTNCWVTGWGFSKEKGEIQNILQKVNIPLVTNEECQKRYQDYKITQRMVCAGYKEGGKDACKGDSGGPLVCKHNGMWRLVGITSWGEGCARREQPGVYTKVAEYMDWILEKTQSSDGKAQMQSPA
T2 sequence (P03952 20-390 partner limits assumed): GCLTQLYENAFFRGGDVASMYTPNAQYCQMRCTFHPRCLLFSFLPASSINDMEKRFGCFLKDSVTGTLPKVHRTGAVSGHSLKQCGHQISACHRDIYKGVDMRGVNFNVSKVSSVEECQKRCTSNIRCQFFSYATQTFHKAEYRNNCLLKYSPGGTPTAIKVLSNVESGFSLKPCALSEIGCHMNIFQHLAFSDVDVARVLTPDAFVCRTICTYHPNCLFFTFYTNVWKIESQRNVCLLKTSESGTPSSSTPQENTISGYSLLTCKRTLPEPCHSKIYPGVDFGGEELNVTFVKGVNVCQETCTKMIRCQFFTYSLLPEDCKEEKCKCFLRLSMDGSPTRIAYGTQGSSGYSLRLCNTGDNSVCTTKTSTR

Row | SMILES | pKi [1] | pKi [2]
1 | COC(=O)Nc1ccc2c(c1)NC(=O)CCCCC(C(=O)N1CC[C@@]3(C1)OC(=O)Nc1ccc(Cl)c(F)c13)c1nc-2c[nH]1 (mixture of isomers) [Example 4, methyl ((Z)-9-((R)-6-chloro-5-fluoro-2-oxo-1,2-dihydrospiro[benzo[d][1,3]oxazine-4,3′-pyrrolidine]-1′-carbonyl)-4-oxo-1^1H-3-aza-1(4,2)-imidazola-2(1,2)-benzenacyclononaphane-2^4-yl)carbamate] | 9.07 | 8.91
2 | COC(=O)Nc1ccc2c(c1)NC(=O)CCCCC(C(=O)N1CCC[C@@]3(C1)OC(=O)Nc1ccc(Cl)c(F)c13)c1nc-2c(Cl)[nH]1 (mixture of isomers) [Example 8, methyl ((Z)-1^5-chloro-9-((R)-6-chloro-5-fluoro-2-oxo-1,2-dihydrospiro[benzo[d][1,3]oxazine-4,3′-piperidine]-1′-carbonyl)-4-oxo-1^1H-3-aza-1(4,2)-imidazola-2(1,2)-benzenacyclononaphane-2^4-yl)carbamate] | 9.60 | 9.25
3 | COC(=O)Nc1ccc2c(c1)NC(=O)CCCCC(C(=O)N1CC[C@@]3(C1)OC(=O)Nc1ccc(Cl)c(F)c13)c1nc-2c(Cl)[nH]1 (mixture of isomers) [Example 9, methyl ((Z)-1^5-chloro-9-((R)-6-chloro-5-fluoro-2-oxo-1,2-dihydrospiro[benzo[d][1,3]oxazine-4,3′-pyrrolidine]-1′-carbonyl)-4-oxo-1^1H-3-aza-1(4,2)-imidazola-2(1,2)-benzenacyclononaphane-2^4-yl)carbamate] | 9.47 | 9.24
4 | COC(=O)Nc1ccc2c(c1)NC(=O)[C@H](C)CCCC(C(=O)N1CC[C@@]3(C1)OC(=O)Nc1ccc(Cl)c(F)c13)c1nc-2c(Cl)[nH]1 (mixture of isomers) [Example 11] | 9.13 | 8.88
5 | COC(=O)Nc1ccc2c(c1)NC(=O)CCCCC(C(=O)N1CCC[C@@]3(C1)OC(=O)Nc1ccc(Cl)c(F)c13)c1nc-2c(C)[nH]1 (mixture of isomers) [Example 12, methyl ((Z)-9-((R)-6-chloro-5-fluoro-2-oxo-1,2-dihydrospiro[benzo[d][1,3]oxazine-4,3′-piperidine]-1′-carbonyl)-1^5-methyl-4-oxo-1^1H-3-aza-1(4,2)-imidazola-2(1,2)-benzenacyclononaphane-2^4-yl)carbamate] | 8.57 | 8.89
6 | O=C1CCCCC(C(=O)N2CC[C@@]3(C2)OC(=O)Nc2ccc(Cl)c(F)c23)c2cc(ccn2)-c2cc3ccc(=O)[nH]c3cc2N1 (mixture of isomers) [Example 26, 3-((R)-6-chloro-5-fluoro-2-oxo-1,2-dihydrospiro[benzo[d][1,3]oxazine-4,3′-pyrrolidine]-1′-carbonyl)-1^1,1^2-dihydro-9-aza-1(6,7)-quinolina-2(4,2)-pyridinacyclononaphane-1^2,8-dione] | 8.41 | 8.91
7 | O=C1CCCCC(C(=O)N2CCC[C@@]3(C2)OC(=O)Nc2ccc(Cl)c(F)c23)c2cc(ccn2)-c2cc3ccc(=O)[nH]c3cc2N1 (mixture of isomers) [Example 27, 3-((R)-6-chloro-5-fluoro-2-oxo-1,2-dihydrospiro[benzo[d][1,3]oxazine-4,3′-piperidine]-1′-carbonyl)-1^1,1^2-dihydro-9-aza-1(6,7)-quinolina-2(4,2)-pyridinacyclononaphane-1^2,8-dione] | 7.89 | 9.22
8 | CCOC(=O)C1CCCCC(C(=O)N2CCC[C@@]3(C2)OC(=O)Nc2ccc(Cl)c(F)c23)c2nc(c[nH]2)-c2ccc(NC(=O)OC)cc2N1 (mixture of isomers) [Example 32, ethyl (Z)-9-((R)-6-chloro-5-fluoro-2-oxo-1,2-dihydrospiro[benzo[d][1,3]oxazine-4,3′-piperidine]-1′-carbonyl)-2^4-((methoxycarbonyl)amino)-1^1H-3-aza-1(4,2)-imidazola-2(1,2)-benzenacyclononaphane-4-carboxylate] | 8.31 | 7.81
9 | COC(=O)Nc1ccc2c(c1)NC(=O)CCCC[C@@H](C(=O)N1CC[C@@]3(C1)OC(=O)Nc1ccc(Cl)cc13)c1nc-2c[nH]1 (single isomer, unassigned) [Example 1a] | 8.63 | 8.70
10 | COC(=O)Nc1ccc2c(c1)NC(=O)CCCC[C@@H](C(=O)N1CC[C@@]3(C1)OC(=O)Nc1ccc(Cl)cc13)c1nc-2c(Cl)[nH]1 (single isomer, unassigned) [Example 6a] | 9.43 | 9.16
11 | COC(=O)Nc1ccc2c(c1)NC(=O)CCCC[C@H](C(=O)N1CC[C@@]3(C1)OC(=O)Nc1ccc(Cl)cc13)c1nc-2c(Cl)[nH]1 (single isomer, unassigned) [Example 6b] | 7.80 | 7.49
12 | COC(=O)Nc1ccc2c(c1)NC(=O)CCCC[C@@H](C(=O)N1CCC[C@@]3(C1)OC(=O)Nc1ccc(Cl)c(F)c13)c1nc-2c(C)[nH]1 (single isomer, unassigned) [Example 12b] | 9.03 | 8.89
13 | COC(=O)Nc1ccc2c(c1)NC(=O)C(C)CCCC(C(=O)N1CCC[C@@]3(C1)OC(=O)Nc1ccc(Cl)cc13)c1cc-2ccn1 (single isomer, unassigned) [Example 15a] | 7.51 | 8.77
14 | COC(=O)Nc1ccc2c(c1)NC(=O)CCCC[C@@H](C(=O)N1CC[C@@]3(C1)OC(=O)Nc1ccc(Cl)c(F)c13)c1cccc-2n1 (single isomer, unassigned) [Example 23b] | 7.35 | 8.07
15 | CCOC(=O)C1CCCCC(C(=O)N2CCC[C@@]3(C2)OC(=O)Nc2ccc(Cl)c(F)c23)c2nc(c[nH]2)-c2ccc(NC(=O)OC)cc2N1 (single isomer, unassigned) [Example 32b] | 9.21 | 8.85
16 | COC(=O)Nc1ccc2c(c1)NC(=O)CCCC[C@@H](C(=O)N1CCC[C@@]3(C1)OC(=O)Nc1ccc(Cl)cc13)c1nc-2c[nH]1 [Example 3a, methyl ((R,Z)-9-((R)-6-chloro-2-oxo-1,2-dihydrospiro[benzo[d][1,3]oxazine-4,3′-piperidine]-1′-carbonyl)-4-oxo-1^1H-3-aza-1(4,2)-imidazola-2(1,2)-benzenacyclononaphane-2^4-yl)carbamate] | 8.56 | 9.09
17 | COC(=O)Nc1ccc2c(c1)NC(=O)CCCC[C@@H](C(=O)N1CCC[C@@]3(C1)OC(=O)Nc1ccc(Cl)cc13)c1nc-2c(Cl)[nH]1 [Example 7a, methyl ((R,Z)-1^5-chloro-9-((R)-6-chloro-2-oxo-1,2-dihydrospiro[benzo[d][1,3]oxazine-4,3′-piperidine]-1′-carbonyl)-4-oxo-11H-3-aza-1(4,2)-imidazola-2(1,2)-benzenacyclononaphane-2^4-yl)carbamate] | 9.38 | 9.41
